Measured values from the CheMixHub viscosity set.

Experiment: xn = mol fraction of the nth substance listed

CCCCCCCCCCCCCCCCCC(=O)O + CC(C)[C@@H]1CC[C@@H](C)C[C@H]1O
100 kPa, x1 = 0.1
Conditions | viscosity [mPa·s]
313.15 K | 16.61
318.15 K | 12.62
323.15 K | 9.81

ClC(Cl)(Cl)c1ccccc1 + CC(Cl)(Cl)Cl
298.15 K, 101.33 kPa
Conditions | viscosity [mPa·s]
x2 = 0.157 | 1.93
x2 = 0.295 | 1.72
x2 = 0.423 | 1.532
x2 = 0.54 | 1.367
x2 = 0.647 | 1.222
x2 = 0.746 | 1.096
x2 = 0.837 | 0.9829
x2 = 0.921 | 0.8849

OC1COCOC1 + CC(O)CO
viscosity [mPa·s], 101 kPa
Conditions | x1 = 0.1001 | x1 = 0.2022 | x1 = 0.2993 | x1 = 0.3988 | x1 = 0.5 | x1 = 0.5991 | x1 = 0.7069 | x1 = 0.8004 | x1 = 0.9002
298.15 K | 40.55 | 35.63 | 31.87 | 28.95 | 26.18 | 23.35 | 20.25 | 17.68 | 15.39
308.15 K | 23.27 | 20.32 | 18.06 | 16.28 | 14.83 | 13.52 | 12.12 | 10.93 | 9.829
318.15 K | 14.08 | 12.09 | 10.67 | 9.707 | 9.031 | 8.445 | 7.772 | 7.179 | 6.681

Cc1ccc(O)cc1 + CCC(=O)O
viscosity [mPa·s], 101 kPa
Conditions | x2 = 0.1344 | x2 = 0.2589 | x2 = 0.3745 | x2 = 0.4823 | x2 = 0.5828 | x2 = 0.677 | x2 = 0.7653 | x2 = 0.8482 | x2 = 0.9263
298.15 K | 10.16 | 7.533 | 5.663 | 4.309 | 3.321 | 2.59 | 2.042 | 1.625 | 1.297
308.15 K | 6.121 | 4.928 | 3.983 | 3.238 | 2.597 | 2.136 | 1.709 | 1.372 | 1.112
318.15 K | 4.876 | 4.035 | 3.365 | 2.772 | 2.281 | 1.853 | 1.512 | 1.241 | 0.9766

Cc1cccc(C)c1 + CCC(C)O
308.15 K, 101 kPa
Conditions | viscosity [mPa·s]
x2 = 0.0658 | 0.532
x2 = 0.1295 | 0.544
x2 = 0.2112 | 0.563
x2 = 0.3085 | 0.592
x2 = 0.3828 | 0.622
x2 = 0.4366 | 0.653
x2 = 0.5058 | 0.696
x2 = 0.6047 | 0.792
x2 = 0.698 | 0.919
x2 = 0.8006 | 1.071
x2 = 0.9493 | 1.724

Nc1ccccc1Cl + CCC(C)O
viscosity [mPa·s], 101 kPa
Conditions | x1 = 0.0896 | x1 = 0.1798 | x1 = 0.2798 | x1 = 0.3912 | x1 = 0.4951 | x1 = 0.5894 | x1 = 0.6812 | x1 = 0.7958 | x1 = 0.8925
303.15 K | 2.78 | 2.94 | 3.11 | 3.28 | 3.41 | 3.51 | 3.6 | 3.7 | 3.76
308.15 K | 2.36 | 2.53 | 2.69 | 2.85 | 2.99 | 3.1 | 3.19 | 3.29 | 3.36
313.15 K | 2.04 | 2.21 | 2.37 | 2.53 | 2.66 | 2.77 | 2.86 | 2.96 | 3.03
318.15 K | 1.77 | 1.94 | 2.09 | 2.24 | 2.37 | 2.47 | 2.57 | 2.68 | 2.74
